Molecular target: T1, 1-deoxy-D-xylulose 5-phosphate synthase (DXPS) (Escherichia coli, UniProt P77488)
T1 sequence (P77488 2-620): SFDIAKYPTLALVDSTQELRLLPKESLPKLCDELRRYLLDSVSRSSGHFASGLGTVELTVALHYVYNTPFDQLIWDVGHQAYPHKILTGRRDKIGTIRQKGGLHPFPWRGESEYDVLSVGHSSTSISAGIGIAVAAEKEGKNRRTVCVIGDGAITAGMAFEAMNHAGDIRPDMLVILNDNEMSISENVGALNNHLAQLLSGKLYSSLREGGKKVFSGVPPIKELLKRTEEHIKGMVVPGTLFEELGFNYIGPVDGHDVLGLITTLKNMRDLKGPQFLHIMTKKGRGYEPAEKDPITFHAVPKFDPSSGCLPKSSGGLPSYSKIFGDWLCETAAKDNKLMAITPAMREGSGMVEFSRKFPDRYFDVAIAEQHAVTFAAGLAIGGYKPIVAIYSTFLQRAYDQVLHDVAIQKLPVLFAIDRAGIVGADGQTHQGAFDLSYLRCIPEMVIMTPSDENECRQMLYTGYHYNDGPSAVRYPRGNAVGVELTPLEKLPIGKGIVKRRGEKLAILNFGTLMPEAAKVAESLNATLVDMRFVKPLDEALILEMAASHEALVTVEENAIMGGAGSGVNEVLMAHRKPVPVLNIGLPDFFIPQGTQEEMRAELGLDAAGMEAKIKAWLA
Assay: CD titration of the ThDP-bound pre-decarboxylation intermediate, anaerobic
Format: binding

`CCC(=O)C(=O)O` [compound 2, ketobutyrate] was tested, and the Kd was 16 ± 9 µM.

From publication PMC8015787 (Biochemistry, 2021)
